Measured values reported in patent publication US10710986B2, “PD-1/PD-L1 inhibitors” (Gilead Sciences, Inc., priority 2018, dated 2020).

Target: PD-1/PD-L1 (Homo sapiens (Human), UniProt Q9NZQ7)
Assay: PD-1/PD-L1 biochemical protein-protein interaction assay (ALPHA)
Conditions: 0.3 nM His tagged PD-L1, 2.5 nM biotinylated Fc-PD-1, 60 minutes at 25° C., read-out: IC50 PD-L1-PD1

Sequence of PD-1/PD-L1 (Q9NZQ7 19-238): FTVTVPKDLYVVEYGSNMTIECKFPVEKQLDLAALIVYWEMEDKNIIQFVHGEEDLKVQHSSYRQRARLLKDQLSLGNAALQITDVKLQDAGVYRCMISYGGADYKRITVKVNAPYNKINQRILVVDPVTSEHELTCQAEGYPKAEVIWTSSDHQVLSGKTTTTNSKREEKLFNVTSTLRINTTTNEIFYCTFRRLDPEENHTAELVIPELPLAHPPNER

IC50 | Compound
70 pM | COc1nc(-c2cccc(-c3cccc(-c4cnc(CN5CCN[C@H](C)C5)c(OC)n4)c3Cl)c2Cl)cnc1CNC[C@@H]1CCC(=O)N1 [compound 251]
60 pM | COc1nc(-c2cccc(-c3cccc(-c4cnc(CN5CC(F)(CO)C5)c(OC)n4)c3Cl)c2Cl)cnc1CNC[C@@H]1CCC(=O)N1 [compound 252]
90 pM | COc1nc(-c2cccc(-c3cccc(-c4cnc(CN5CC(O)(CO)C5)c(OC)n4)c3Cl)c2Cl)cnc1CNC[C@@H]1CCC(=O)N1 [compound 253]
110 pM | COc1nc(-c2cccc(-c3cccc(-c4cnc(CNC[C@@H]5CCC(=O)N5)c(OC)n4)c3Cl)c2Cl)cnc1CNC[C@H]1CCN1 [compound 254]
80 pM | COc1nc(-c2cccc(-c3cccc(-c4cnc(CNC[C@@H]5CCC(=O)N5)c(OC)n4)c3Cl)c2Cl)cnc1CNCC1CNC1 [compound 255]
160 pM | COc1nc(-c2cccc(-c3cccc(-c4cnc(CN5CCN(C=O)CC5)c(OC)n4)c3Cl)c2Cl)cnc1CNC[C@@H]1CCC(=O)N1 [compound 256]
426 pM | COc1nc(-c2cccc(-c3cccc(-c4cnc(CN[C@H](CO)C(C)C)c(OC)n4)c3Cl)c2Cl)cnc1CNC[C@@H]1CCC(=O)N1 [compound 257]
673 pM | COc1nc(-c2cccc(-c3cccc(-c4cnc(CN(CCO)CC(F)(F)F)c(OC)n4)c3Cl)c2Cl)cnc1CNC[C@@H]1CCC(=O)N1 [compound 258]
273 pM | COc1nc(-c2cccc(-c3cccc(-c4cnc(CN5CCN[C@H](C6CC6)C5)c(OC)n4)c3Cl)c2Cl)cnc1CNC[C@@H]1CCC(=O)N1 [compound 259]
295 pM | COc1nc(-c2cccc(-c3cccc(-c4cnc(CN5CC[C@@H](OC)[C@@H](F)C5)c(OC)n4)c3Cl)c2Cl)cnc1CNC[C@@H]1CCC(=O)N1 [compound 260]
128 pM | COc1nc(-c2cccc(-c3cccc(-c4cnc(CN5CCCC(F)(CO)C5)c(OC)n4)c3Cl)c2Cl)cnc1CNC[C@@H]1CCC(=O)N1 (stereo partly shown) [compound 261]
465 pM | COc1nc(-c2cccc(-c3cccc(-c4cnc(CNC[C@@H]5CC(C)C(=O)N5)c(OC)n4)c3Cl)c2Cl)cnc1CNC[C@@H]1CCC(=O)N1 (stereo partly shown) [compound 262]
379 pM | COc1nc(-c2cccc(-c3cccc(-c4cnc(CN5C[C@@H](O)C[C@@H](F)C5)c(OC)n4)c3Cl)c2Cl)cnc1CNC[C@@H]1CCC(=O)N1 [compound 263]
407 pM | COc1nc(-c2cccc(-c3cccc(-c4cnc(CN5C[C@H](O)C[C@@H](F)C5)c(OC)n4)c3Cl)c2Cl)cnc1CNC[C@@H]1CCC(=O)N1 [compound 264]
225 pM | COc1nc(-c2cccc(-c3cccc(-c4cnc(CN5C[C@H](O)[C@@H](F)C5)c(OC)n4)c3Cl)c2Cl)cnc1CNC[C@@H]1CCC(=O)N1 [compound 265]
243 pM | COc1nc(-c2cccc(-c3cccc(-c4cnc(CN5C[C@H](O)[C@@H](C#N)C5)c(OC)n4)c3Cl)c2Cl)cnc1CNC[C@@H]1CCC(=O)N1 [compound 266]
606 pM | COc1nc(-c2cccc(-c3cccc(-c4cnc(CNC5CCC(F)(F)C5)c(OC)n4)c3Cl)c2Cl)cnc1CNC[C@@H]1CCC(=O)N1 (stereo partly shown) [compound 267]
352 pM | COc1nc(-c2cccc(-c3cccc(-c4cnc(CN[C@H]5C[C@H]5CO)c(OC)n4)c3Cl)c2Cl)cnc1CNC[C@@H]1CCC(=O)N1 [compound 268]
230 pM | COc1nc(-c2cccc(-c3cccc(-c4cnc(CN5CCN(C6CC6)CC5)c(OC)n4)c3Cl)c2Cl)cnc1CNC[C@@H]1CCC(=O)N1 [compound 269]
378 pM | COc1nc(-c2cccc(-c3cccc(-c4cnc(CN5CCC[C@@H](F)C5)c(OC)n4)c3Cl)c2Cl)cnc1CNC[C@@H]1CCC(=O)N1 [compound 270]
1700 pM | COc1nc(-c2cccc(-c3cccc(-c4cnc(CN5CCCC(F)(F)C5)c(OC)n4)c3Cl)c2Cl)cnc1CNC[C@@H]1CCC(=O)N1 [compound 271]
2430 pM | COc1nc(-c2cccc(-c3cccc(-c4cnc(CN5CCCC(C(F)F)C5)c(OC)n4)c3Cl)c2Cl)cnc1CNC[C@@H]1CCC(=O)N1 (stereo partly shown) [compound 272]
265 pM | COc1nc(-c2cccc(-c3cccc(-c4cnc(CNC5CC6CC6C5)c(OC)n4)c3Cl)c2Cl)cnc1CNC[C@@H]1CCC(=O)N1 (stereo partly shown) [compound 273]
117 pM | COc1nc(-c2cccc(-c3cccc(-c4cnc(CN[C@H]5C[C@@](C)(O)C5)c(OC)n4)c3Cl)c2Cl)cnc1CNC[C@@H]1CCC(=O)N1 [compound 274]
64 pM | COc1nc(-c2cccc(-c3cccc(-c4cnc(CNC[C@H]5C[C@H](O)C5)c(OC)n4)c3Cl)c2Cl)cnc1CNC[C@@H]1CCC(=O)N1 [compound 275]
270 pM | COc1nc(-c2cccc(-c3cccc(-c4cnc(CN[C@@H]5C[C@H]5CO)c(OC)n4)c3Cl)c2Cl)cnc1CNC[C@@H]1CCC(=O)N1 [compound 276]
652 pM | COc1nc(-c2cccc(-c3cccc(-c4cnc(CN5CC[C@H](O)[C@@H](F)C5)c(OC)n4)c3Cl)c2Cl)cnc1CNC[C@@H]1CCC(=O)N1 [compound 277]
538 pM | COc1nc(-c2cccc(-c3cccc(-c4cnc(CN5CC[C@@H](O)[C@@H](F)C5)c(OC)n4)c3Cl)c2Cl)cnc1CNC[C@@H]1CCC(=O)N1 [compound 278]

IC50 | Compound
343 pM | COc1nc(-c2cccc(-c3cccc(-c4cnc(CN5CC[C@@H](O)[C@H](F)C5)c(OC)n4)c3Cl)c2Cl)cnc1CNC[C@@H]1CCC(=O)N1 [compound 279]
180 pM | COc1nc(-c2cccc(-c3cccc(-c4cnc(CN5CC[C@H](O)[C@H](F)C5)c(OC)n4)c3Cl)c2Cl)cnc1CNC[C@@H]1CCC(=O)N1 [compound 280]
1190 pM | COc1nc(-c2cccc(-c3cccc(-c4cnc(CNC[C@@H]5CCC(=O)N5)c(OC)n4)c3Cl)c2Cl)cnc1CNCC1COC(=O)N1 (stereo partly shown) [compound 281]
1570 pM | COc1nc(-c2cccc(-c3cccc(-c4cnc(CN5CCC(F)(F)CC5)c(OC)n4)c3Cl)c2Cl)cnc1CNC[C@@H]1CCC(=O)N1 [compound 282]
711 pM | COc1nc(-c2cccc(-c3cccc(-c4cnc(CNC5CC(F)C5)c(OC)n4)c3Cl)c2Cl)cnc1CNC[C@@H]1CCC(=O)N1 (stereo partly shown) [compound 283]
816 pM | COc1nc(-c2cccc(-c3cccc(-c4cnc(CNC5CC(F)(F)C5)c(OC)n4)c3Cl)c2Cl)cnc1CNC[C@@H]1CCC(=O)N1 [compound 284]
358 pM | COc1nc(-c2cccc(-c3cccc(-c4cnc(CN5CCCC(NC(C)=O)C5)c(OC)n4)c3Cl)c2Cl)cnc1CNC[C@H]1CCC(=O)N1 (stereo partly shown) [compound 285]
60 pM | COc1nc(-c2cccc(-c3cccc(-c4cnc(CNCC5(O)CCS(=O)(=O)C5)c(OC)n4)c3Cl)c2Cl)cnc1CNC[C@@H]1CCC(=O)N1 (stereo partly shown) [compound 286]
340 pM | COc1nc(-c2cccc(-c3cccc(-c4cnc(CN5CC[C@H]6CNC(=O)[C@H]65)c(OC)n4)c3Cl)c2Cl)cnc1CNC[C@@H]1CCC(=O)N1 [compound 287]
260 pM | CNC(=O)CNCc1ncc(-c2cccc(-c3cccc(-c4cnc(CNC[C@@H]5CCC(=O)N5)c(OC)n4)c3Cl)c2Cl)nc1OC [compound 288]
60 pM | COc1nc(-c2cccc(-c3cccc(-c4cnc(CN5CC6(CC(O)C6)C5)c(OC)n4)c3Cl)c2Cl)cnc1CNC[C@@H]1CCC(=O)N1 [compound 289]
259 pM | COc1nc(-c2cccc(-c3cccc(-c4cnc(CN5CCC6(CC5)NC(=O)NC6=O)c(OC)n4)c3Cl)c2Cl)cnc1CNC[C@@H]1CCC(=O)N1 [compound 290]
216 pM | COc1nc(-c2cccc(-c3cccc(-c4cnc(CN5CCCC6(C5)NC(C)=NC6=O)c(OC)n4)c3Cl)c2Cl)cnc1CNC[C@@H]1CCC(=O)N1 (stereo partly shown) [compound 291]
229 pM | COc1nc(-c2cccc(-c3cccc(-c4cnc(CN5CCC6(C5)NC(=O)NC6=O)c(OC)n4)c3Cl)c2Cl)cnc1CNC[C@@H]1CCC(=O)N1 (stereo partly shown) [compound 292]
516 pM | COc1nc(-c2cccc(-c3cccc(-c4cnc(CN5CCCC6(C5)NC(=O)NC6=O)c(OC)n4)c3Cl)c2Cl)cnc1CNC[C@@H]1CCC(=O)N1 (stereo partly shown) [compound 293]
298 pM | COc1nc(-c2cccc(-c3cccc(-c4cnc(CN5CCC6(C5)NC(=O)N(C)C6=O)c(OC)n4)c3Cl)c2Cl)cnc1CNC[C@@H]1CCC(=O)N1 (stereo partly shown) [compound 294]
414 pM | COc1nc(-c2cccc(-c3cccc(-c4cnc(CN[C@@H]5CCO[C@@H]5C)c(OC)n4)c3Cl)c2Cl)cnc1CNC[C@@H]1CCC(=O)N1 [compound 295]
222 pM | COc1nc(-c2cccc(-c3cccc(-c4cnc(CNC[C@@H]5CCC(=O)N5)c(OC)n4)c3Cl)c2Cl)cnc1CNC[C@H]1CCOC1 [compound 296]
254 pM | COc1nc(-c2cccc(-c3cccc(-c4cnc(CN(C)[C@H]5CCOC5)c(OC)n4)c3Cl)c2Cl)cnc1CNC[C@@H]1CCC(=O)N1 [compound 297]
181 pM | COc1nc(-c2cccc(-c3cccc(-c4cnc(CN5CCC6(CC(CO)C6)C5)c(OC)n4)c3Cl)c2Cl)cnc1CNC[C@@H]1CCC(=O)N1 (stereo partly shown) [compound 298]
299 pM | COc1nc(-c2cccc(-c3cccc(-c4cnc(CN5CC[C@@H](CO)[C@@H](O)C5)c(OC)n4)c3Cl)c2Cl)cnc1CNC[C@@H]1CCC(=O)N1 [compound 300]
250 pM | COc1nc(-c2cccc(-c3cccc(-c4cnc(CN5CC6(CCS6(=O)=O)C5)c(OC)n4)c3Cl)c2Cl)cnc1CNC[C@@H]1CCC(=O)N1 [compound 301]
89 pM | COc1nc(-c2cccc(-c3cccc(-c4cnc(CNC[C@@H]5CCC(=O)N5)c(OC)n4)c3Cl)c2Cl)cnc1CNCC(N)=O [compound 302]
256 pM | COc1nc(-c2cccc(-c3cccc(-c4cnc(CNC[C@@H]5CCC(=O)N5C)c(OC)n4)c3Cl)c2Cl)cnc1CNC[C@@H]1CCC(=O)N1 [compound 303]
290 pM | COc1nc(-c2cccc(-c3cccc(-c4cnc(CN[C@@H](CO)C(N)=O)c(OC)n4)c3Cl)c2Cl)cnc1CNC[C@@H]1CCC(=O)N1 [compound 304]
244 pM | COc1nc(-c2cccc(-c3cccc(-c4cnc(CNC[C@@H]5CCC(=O)N5)c(OC)n4)c3Cl)c2Cl)cnc1CNCc1cccn(C)c1=O [compound 305]
245 pM | COc1nc(-c2cccc(-c3cccc(-c4cnc(CNC[C@@H]5CCC(=O)N5)c(OC)n4)c3Cl)c2Cl)cnc1CNCC1CCS(=O)(=O)N1 (stereo partly shown) [compound 306]
